ChEMBL document CHEMBL1133687, “Structure-based design of novel bicyclic nonpeptide inhibitors for the src SH2 domain” (J Med Chem, 2000)
pIC50: −log10 of the molar value.

Target: Proto-oncogene tyrosine-protein kinase Src (Homo sapiens, UniProt P12931)
Assay: Binding affinity against Src SH2 domain in competitive fluorescence polarization assay

Chain of Proto-oncogene tyrosine-protein kinase Src (P12931 2-536 limits assumed): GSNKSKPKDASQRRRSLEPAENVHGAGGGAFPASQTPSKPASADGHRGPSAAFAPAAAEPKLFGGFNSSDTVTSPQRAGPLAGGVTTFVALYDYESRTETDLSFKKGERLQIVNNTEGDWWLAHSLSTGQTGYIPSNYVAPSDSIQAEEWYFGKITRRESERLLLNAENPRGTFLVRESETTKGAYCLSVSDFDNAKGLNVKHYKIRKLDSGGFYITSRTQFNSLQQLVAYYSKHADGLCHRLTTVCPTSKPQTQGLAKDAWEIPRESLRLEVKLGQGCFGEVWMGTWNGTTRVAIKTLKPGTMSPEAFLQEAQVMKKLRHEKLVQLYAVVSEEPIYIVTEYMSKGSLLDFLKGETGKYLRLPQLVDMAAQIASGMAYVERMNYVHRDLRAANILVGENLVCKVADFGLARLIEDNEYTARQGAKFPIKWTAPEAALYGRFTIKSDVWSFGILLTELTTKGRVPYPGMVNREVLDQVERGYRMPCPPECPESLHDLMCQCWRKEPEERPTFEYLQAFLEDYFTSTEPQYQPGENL

Structure (SMILES)	pIC50
CC(=O)N[C@@H](Cc1ccc(OP(=O)(O)O)cc1)C(=O)N[C@H]1CCCCc2cc(OCC3CCCCC3)c(C(N)=O)cc21	7.00
CC(=O)N[C@@H](Cc1ccc(OP(=O)(O)O)cc1)C(=O)N[C@H]1CCCOc2cc(OCC3CCCCC3)c(C(N)=O)cc21	6.70
CC(=O)N[C@@H](Cc1ccc(OP(=O)(O)O)cc1)C(=O)N[C@@H]1CCCCc2cc(OCC3CCCCC3)c(C(N)=O)cc21	5.09
CC(=O)N[C@@H](Cc1ccc(OP(=O)(O)O)cc1)C(=O)N[C@@H]1CCCOc2cc(OCC3CCCCC3)c(C(N)=O)cc21	5.80
CC[C@H](C)[C@H](NC(=O)[C@H](CCC(=O)O)NC(=O)[C@H](CCC(=O)O)NC(=O)[C@@H](N)Cc1ccc(OP(=O)(O)O)cc1)C(=O)O	5.25
